Reference: BindingDB's records for doi:10.1002/cbic.200400084 (Laboratorium FÜR Organische Chemie, 2004)

Molecular target: T1, Catechol O-methyltransferase (Rattus norvegicus, UniProt P22734)
T1 sequence (P22734 whole entry): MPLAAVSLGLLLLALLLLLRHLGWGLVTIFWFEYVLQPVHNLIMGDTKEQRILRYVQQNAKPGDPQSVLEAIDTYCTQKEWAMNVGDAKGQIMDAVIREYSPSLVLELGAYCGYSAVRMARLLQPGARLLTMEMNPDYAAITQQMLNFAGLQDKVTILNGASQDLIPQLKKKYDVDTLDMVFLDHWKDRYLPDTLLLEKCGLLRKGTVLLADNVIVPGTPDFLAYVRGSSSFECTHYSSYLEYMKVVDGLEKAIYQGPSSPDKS
Assay: Radiochemical Assay
Settings: 37 °C
Experimental: The binding affinity of the inhibitors towards Catechol O-methyltransferase in the presence of Mg2+ ions were determined by using a radiochemical assay.

| Compound | IC50 [nM] |
| --- | --- |
| Nc1ncnc2c1ncn2[C@@H]1O[C@H](/C=C/CNC(=O)c2cc([N+](=O)[O-])cc(O)c2O)[C@@H](O)[C@H]1O [Bi-substrate Inhibitor, 1a] | 9 |
| Nc1ncnc2c1ncn2[C@@H]1O[C@H](/C=C/CNC(=O)c2cc(Br)cc(O)c2O)[C@@H](O)[C@H]1O [Bi-substrate Inhibitor, 1f] | 28 |
| N#Cc1cc(O)c(O)c(C(=O)NC/C=C/[C@H]2O[C@@H](n3cnc4c(N)ncnc43)[C@H](O)[C@@H]2O)c1 [Bi-substrate Inhibitor, 1h] | 29 |
| Cc1ccc(C(=O)c2cc(O)c(O)c(C(=O)NC/C=C/[C@H]3O[C@@H](n4cnc5c(N)ncnc54)[C@H](O)[C@@H]3O)c2)cc1 [Bi-substrate Inhibitor, 1i] | 34 |
| Nc1ncnc2c1ncn2[C@@H]1O[C@H](/C=C/CNC(=O)c2cc(C(F)(F)F)cc(O)c2O)[C@@H](O)[C@H]1O [Bi-substrate Inhibitor, 1j] | 35 |
| Nc1ncnc2c1ncn2[C@@H]1O[C@H](/C=C/CNC(=O)c2cc(C(=O)C3CCCCC3)cc(O)c2O)[C@@H](O)[C@H]1O [Bi-substrate Inhibitor, 1n] | 83 |
| Cc1ccc(Cc2cc(O)c(O)c(C(=O)NC/C=C/[C@H]3O[C@@H](n4cnc5c(N)ncnc54)[C@H](O)C3O)c2)cc1 (stereo partly drawn) [Bi-substrate Inhibitor, 1q] | 608 |
| CN(C)C(=O)c1cc(O)c(O)c(C(=O)NC/C=C/[C@H]2O[C@@H](n3cnc4c(N)ncnc43)[C@H](O)C2O)c1 (stereo partly drawn) [Bi-substrate Inhibitor, 1s] | 2000 |

The remaining molecules from weak to strong by IC50, led by results:

| IC50 [nM] | Compound |
| --- | --- |
| 2600 | Nc1ncnc2c1ncn2[C@@H]1O[C@H](/C=C/CNC(=O)c2cccc(O)c2O)C(O)[C@H]1O (stereo partly drawn) [Bi-substrate Inhibitor, 1t] |
| 213 | Cc1ccc(S(=O)(=O)c2cc(O)c(O)c(C(=O)NC/C=C/[C@H]3O[C@@H](n4cnc5c(N)ncnc54)[C@H](O)C3O)c2)cc1 (stereo partly drawn) [Bi-substrate Inhibitor, 1p] |
| 97 | CN(C)C(=O)/C=C/c1cc(O)c(O)c(C(=O)NC/C=C/[C@H]2O[C@@H](n3cnc4c(N)ncnc43)[C@H](O)[C@@H]2O)c1 [Bi-substrate Inhibitor, 1o] |
| 44 | Nc1ncnc2c1ncn2[C@@H]1O[C@H](/C=C/CNC(=O)c2cc(Cl)cc(O)c2O)[C@@H](O)[C@H]1O [Bi-substrate Inhibitor, 1m] |
| 42 | Nc1ncnc2c1ncn2[C@@H]1O[C@H](/C=C/CNC(=O)c2cc(C(=O)c3ccncc3)cc(O)c2O)[C@@H](O)[C@H]1O [Bi-substrate Inhibitor, 1l] |
| 39 | Nc1ncnc2c1ncn2[C@@H]1O[C@H](/C=C/CNC(=O)c2cc(C(=O)C(F)(F)F)cc(O)c2O)[C@@H](O)[C@H]1O [Bi-substrate Inhibitor, 1k] |
| 27 | Nc1ncnc2c1ncn2[C@@H]1O[C@H](/C=C/CNC(=O)c2cc(-c3nccs3)cc(O)c2O)[C@@H](O)[C@H]1O [Bi-substrate Inhibitor, 1e] |
| 23 | Cc1ccc(-c2cc(O)c(O)c(C(=O)NC/C=C/[C@H]3O[C@@H](n4cnc5c(N)ncnc54)[C@H](O)[C@@H]3O)c2)cc1 [Bi-substrate Inhibitor, 1c] |
| 23 | Nc1ncnc2c1ncn2[C@@H]1O[C@H](/C=C/CNC(=O)c2cc(-c3ccncc3)cc(O)c2O)[C@@H](O)[C@H]1O [Bi-substrate Inhibitor, 1d] |
| 21 | Nc1ncnc2c1ncn2[C@@H]1O[C@H](/C=C/CNC(=O)c2cc(-c3ccc(F)cc3)cc(O)c2O)[C@@H](O)[C@H]1O [Bi-substrate Inhibitor, 1b] |
